Results published in US8383619B2, “Pharmaceutical compounds” (Astex Therapeutics Limited, priority 2008, dated 2013).

Legend:
Experiment in all cases: Anti-proliferative assay (Oncodesign)
Format in all cases: cell-based
CCRF-CEM/VLB = conditions: Homo sapiens; CCRF-CEM/VLB (BLOOD); read-out: IC50 (Concentration of test compound)
Experimental: (§1) The anti-proliferative activities of the parent compounds of the pro-drugs of the invention may be determined by measuring the ability of the compounds to inhibition of cell growth in a number of cell lines such as the human colon cancer cell line HCT116. Inhibition of cell growth is measured using the Alamar Blue assay (Nociari, M. M, Shalev, A., Benias, P., Russo, C. Journal of Immunological Methods 1998, 213, 157-167). The method is based on the ability of viable cells to reduce resazurin to its fluorescent product resorufin. For each proliferation assay cells are plated onto 96 well plates and allowed to recover for 16 hours prior to the addition of inhibitor compounds for a further 72 hours. At the end of the incubation period 10% (v/v) Alamar Blue is added and incubated for a further 6 hours prior to determination of fluorescent product at […]. In the case of the non-proliferating cell assay cells are maintained at confluence for 96 hour prior to the addition of inhibitor compounds for a further 72 hours. The number of viable cells is determined by Alamar Blue assay as before. Cell lines may be obtained from the ECACC (European Collection of cell Cultures).
(§2) The parent compound of the pro-drugs of Examples 1 to 25 i.e. (2,4-dihydroxy-5-isopropyl-phenyl)-[5-(4-methyl-piperazin-1-ylmethyl)-1,3-dihydro-isoindol-2-yl]-methanone, in the form of its L-lactate salt, was tested in anti-proliferative assays against one hundred cell lines by Oncodesign (Dijon, France). The IC50 values against each cell line are set out in the table below and the figures in the table refer to nanomolar concentrations. The compounds were tested up to a concentration of 10,000 nanomolar.

SUP-B15 = conditions: Homo sapiens; SUP-B15 (BLOOD); read-out: IC50 (Concentration of test compound)
Experimental: as §1, §2

SW-872 = conditions: Homo sapiens, SW872; SW-872 (CONNECTIVE TISSUE); read-out: IC50 (Concentration of test compound)
Experimental: as §1, §2

NIH: OVCAR-3 = conditions: Homo sapiens; NIH: OVCAR-3 (OVARY); read-out: IC50 (Concentration of test compound)
Experimental: as §1, §2

HCT-15 = conditions: Homo sapiens; HCT-15 (COLON); read-out: IC50 (Concentration of test compound)
Experimental: as §1, §2

KB = conditions: Homo sapiens; KB (HEAD AND NECK); read-out: IC50 (Concentration of test compound)
Experimental: as §1, §2

MDA-MB-435 = conditions: Homo sapiens; MDA-MB-435 (BREAST); read-out: IC50 (Concentration of test compound)
Experimental: as §1, §2

SK-HEP-1 = conditions: Homo sapiens, SK-HEP1; SK-HEP-1 (LIVER); read-out: IC50 (Concentration of test compound)
Experimental: as §1, §2

SK-MEL-2 = conditions: Homo sapiens; SK-MEL-2 (SKIN); read-out: IC50 (Concentration of test compound)
Experimental: as §1, §2

Calu-6 = conditions: Homo sapiens; Calu-6 (LUNG); read-out: IC50 (Concentration of test compound)
Experimental: as §1, §2

Raji = conditions: Homo sapiens; Raji (BLOOD); read-out: IC50 (Concentration of test compound)
Experimental: as §1, §2

CGL-3 = CGL-3 (BRAIN); read-out: IC50 (Concentration of test compound)
Experimental: as §1, §2

BB65-RCC = BB65-RCC (KIDNEY); read-out: IC50 (Concentration of test compound)
Experimental: as §1, §2

HL-60/R10 = conditions: Homo sapiens; HL-60/R10 (BLOOD); read-out: IC50 (Concentration of test compound)
Experimental: as §1, §2

BxPC-3 = conditions: Homo sapiens; BxPC-3 (PANCREAS); read-out: IC50 (Concentration of test compound)
Experimental: as §1, §2

LB796-BLC = LB796-BLC (URINARY BLADDER); read-out: IC50 (Concentration of test compound)
Experimental: as §1, §2

AGS = conditions: Homo sapiens; AGS (STOMACH); read-out: IC50 (Concentration of test compound)
Experimental: as §1, §2

Evsa-T = conditions: Homo sapiens; Evsa-T (BREAST); read-out: IC50 (Concentration of test compound)
Experimental: as §1, §2

DLD-1 = conditions: Homo sapiens; DLD-1 (COLON); read-out: IC50 (Concentration of test compound)
Experimental: as §1, §2

J82 = conditions: Homo sapiens; J82 (URINARY BLADDER); read-out: IC50 (Concentration of test compound)
Experimental: as §1, §2

A-498 = conditions: Homo sapiens, A498; A-498 (KIDNEY); read-out: IC50 (Concentration of test compound)
Experimental: as §1, §2

Hep 3B2.1-7 = Hep 3B2.1-7 (LIVER); read-out: IC50 (Concentration of test compound)
Experimental: as §1, §2

MC90 = MC90 (BLOOD); read-out: IC50 (Concentration of test compound)
Experimental: as §1, §2

Malme-3M = conditions: Homo sapiens; Malme-3M (SKIN); read-out: IC50 (Concentration of test compound)
Experimental: as §1, §2

Daudi = conditions: Homo sapiens; Daudi (BLOOD); read-out: IC50 (Concentration of test compound)
Experimental: as §1, §2

IC50 (CCRF-CEM/VLB): > 10000 nM | IC50 (SW-872): > 10000 nM | IC50 (NIH: OVCAR-3): 45 nM | IC50 (HCT-15): > 10000 nM | IC50 (KB): 48 nM | IC50 (MDA-MB-435): 122 nM | IC50 (SK-HEP-1): > 10000 nM | IC50 (SK-MEL-2): 138 nM | IC50 (Calu-6): 32 nM | IC50 (Raji): 881 nM | IC50 (HL-60/R10): 847 nM | IC50 (BxPC-3): 196 nM | IC50 (AGS): 66 nM | IC50 (DLD-1): 56 nM | IC50 (Daudi): 136 nM
Structure (SMILES): CC(C)c1cc(C(=O)N2Cc3ccc(CN4CCN(C)CC4)cc3C2)c(O)cc1O [(2,4-dihydroxy-5-isopropyl-phenyl)-[5-(4-methyl-piperazin-1-ylmethyl)-1,3-dihydro-isoindol-2-yl]-methanone]
IC50 (SUP-B15): 37 nM | IC50 (CGL-3): 75 nM | IC50 (BB65-RCC): 1250 nM | IC50 (LB796-BLC): 83 nM | IC50 (Evsa-T): 168 nM | IC50 (J82): 20 nM | IC50 (A-498): 267 nM | IC50 (Hep 3B2.1-7): 95 nM | IC50 (MC90): 93 nM | IC50 (Malme-3M): 157 nM
